# Measurements: the kinase profiling compilation of Christmann-Franck et al. (2016)
# Several values for one entry are separate records, joined by “and”; a condition that tells them apart may be missing. Identical values can stand only once.
# Biological target: DAPK3 (human) (UniProt O43293)
# Assay: radiometric filter-binding kinase assay, Kinase HotSpot
# Conditions: compound 0.5 µM; ATP 10 µM
row,SMILES,residual activity [%]
1,COc1cc2ncnc(Nc3ccc(F)c(Cl)c3)c2cc1OCCCN1CCOCC1,95.7
2,C#Cc1cccc(Nc2ncnc3cc(OCCOC)c(OCCOC)cc23)c1,95.4
3,Clc1ccc(Nc2nnc(Cc3ccncc3)c3ccccc23)cc1,107
4,CS(=O)c1ccc(-c2nc(-c3ccc(F)cc3)c(-c3ccncc3)[nH]2)cc1 (stereo not given),95.5

# Biological target: MYLK (human) (UniProt Q15746)
# Assay: as above
# Conditions: compound 0.5 µM; ATP 10 µM
row,SMILES,residual activity [%]
1,CCN1/C(=C/C(C)=O)Sc2ccc(OC)cc21,93.7
2,COc1cc2ncnc(Nc3ccc(F)c(Cl)c3)c2cc1OCCCN1CCOCC1,89.7
3,Clc1ccc(Nc2nnc(Cc3ccncc3)c3ccccc23)cc1,97.5
4,CS(=O)c1ccc(-c2nc(-c3ccc(F)cc3)c(-c3ccncc3)[nH]2)cc1 (stereo not given),101

# Biological target: MINK1 (human) (UniProt Q8N4C8)
# Assay: as above
# Conditions: compound 0.5 µM; ATP 10 µM
row,SMILES,residual activity [%]
1,Clc1ccc(Nc2nnc(Cc3ccncc3)c3ccccc23)cc1,104
2,CS(=O)c1ccc(-c2nc(-c3ccc(F)cc3)c(-c3ccncc3)[nH]2)cc1 (stereo not given),107

# Biological target: PRKACA (human) (UniProt P17612)
# Assay: as above
# Conditions: compound 0.5 µM; ATP 10 µM
row,SMILES,residual activity [%]
1,CCN1/C(=C/C(C)=O)Sc2ccc(OC)cc21,98
2,COc1cc2ncnc(Nc3ccc(F)c(Cl)c3)c2cc1OCCCN1CCOCC1,96.3
3,C#Cc1cccc(Nc2ncnc3cc(OCCOC)c(OCCOC)cc23)c1,93.4
4,Clc1ccc(Nc2nnc(Cc3ccncc3)c3ccccc23)cc1,98.1
5,CS(=O)c1ccc(-c2nc(-c3ccc(F)cc3)c(-c3ccncc3)[nH]2)cc1 (stereo not given),98.9

# Biological target: FGFR4 (human) (UniProt P22455)
# Assay: as above
# Conditions: compound 0.5 µM; ATP 10 µM
row,SMILES,residual activity [%]
1,CCN1/C(=C/C(C)=O)Sc2ccc(OC)cc21,92.3
2,COc1cc2ncnc(Nc3ccc(F)c(Cl)c3)c2cc1OCCCN1CCOCC1,92.4
3,C#Cc1cccc(Nc2ncnc3cc(OCCOC)c(OCCOC)cc23)c1,93.3
4,Clc1ccc(Nc2nnc(Cc3ccncc3)c3ccccc23)cc1,95.8
5,CS(=O)c1ccc(-c2nc(-c3ccc(F)cc3)c(-c3ccncc3)[nH]2)cc1 (stereo not given),73.8

# Biological target: STK39 (human) (UniProt Q9UEW8)
# Assay: as above
# Conditions: compound 0.5 µM; ATP 10 µM
row,SMILES,residual activity [%]
1,CCN1/C(=C/C(C)=O)Sc2ccc(OC)cc21,95.9
2,COc1cc2ncnc(Nc3ccc(F)c(Cl)c3)c2cc1OCCCN1CCOCC1,93.5
3,C#Cc1cccc(Nc2ncnc3cc(OCCOC)c(OCCOC)cc23)c1,97
4,Clc1ccc(Nc2nnc(Cc3ccncc3)c3ccccc23)cc1,92.6
5,CS(=O)c1ccc(-c2nc(-c3ccc(F)cc3)c(-c3ccncc3)[nH]2)cc1 (stereo not given),93.9

# Biological target: CDK6 CCND3 (human) (UniProt P30281+Q00534)
# Assay: as above
# Conditions: compound 0.5 µM; ATP 10 µM
row,SMILES,residual activity [%]
1,CCN1/C(=C/C(C)=O)Sc2ccc(OC)cc21,104
2,COc1cc2ncnc(Nc3ccc(F)c(Cl)c3)c2cc1OCCCN1CCOCC1,118
3,C#Cc1cccc(Nc2ncnc3cc(OCCOC)c(OCCOC)cc23)c1,117
4,Clc1ccc(Nc2nnc(Cc3ccncc3)c3ccccc23)cc1,125
5,CS(=O)c1ccc(-c2nc(-c3ccc(F)cc3)c(-c3ccncc3)[nH]2)cc1 (stereo not given),94.6

# Biological target: STK4 (human) (UniProt Q13043)
# Sequence (Q13043 whole entry, looked up): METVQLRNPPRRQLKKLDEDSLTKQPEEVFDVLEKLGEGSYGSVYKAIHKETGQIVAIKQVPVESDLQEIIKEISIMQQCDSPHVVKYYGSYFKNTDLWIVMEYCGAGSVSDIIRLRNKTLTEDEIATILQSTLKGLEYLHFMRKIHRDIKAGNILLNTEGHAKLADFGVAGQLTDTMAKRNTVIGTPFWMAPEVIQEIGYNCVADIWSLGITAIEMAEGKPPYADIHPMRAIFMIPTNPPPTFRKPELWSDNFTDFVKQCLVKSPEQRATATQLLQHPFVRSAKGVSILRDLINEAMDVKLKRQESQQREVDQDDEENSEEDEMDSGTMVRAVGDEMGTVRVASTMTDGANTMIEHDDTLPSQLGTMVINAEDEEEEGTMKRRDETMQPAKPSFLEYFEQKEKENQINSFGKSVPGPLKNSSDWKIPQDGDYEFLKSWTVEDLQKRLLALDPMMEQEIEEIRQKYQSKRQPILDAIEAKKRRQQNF
# Assay: as above
# Conditions: compound 0.5 µM; ATP 10 µM
row,SMILES,residual activity [%]
1,CCN1/C(=C/C(C)=O)Sc2ccc(OC)cc21,97.8
2,COc1cc2ncnc(Nc3ccc(F)c(Cl)c3)c2cc1OCCCN1CCOCC1,101
3,C#Cc1cccc(Nc2ncnc3cc(OCCOC)c(OCCOC)cc23)c1,97.4
4,Clc1ccc(Nc2nnc(Cc3ccncc3)c3ccccc23)cc1,105
5,CS(=O)c1ccc(-c2nc(-c3ccc(F)cc3)c(-c3ccncc3)[nH]2)cc1 (stereo not given),101

# Biological target: LYN (human) (UniProt P07948)
# Sequence (P07948 whole entry, looked up): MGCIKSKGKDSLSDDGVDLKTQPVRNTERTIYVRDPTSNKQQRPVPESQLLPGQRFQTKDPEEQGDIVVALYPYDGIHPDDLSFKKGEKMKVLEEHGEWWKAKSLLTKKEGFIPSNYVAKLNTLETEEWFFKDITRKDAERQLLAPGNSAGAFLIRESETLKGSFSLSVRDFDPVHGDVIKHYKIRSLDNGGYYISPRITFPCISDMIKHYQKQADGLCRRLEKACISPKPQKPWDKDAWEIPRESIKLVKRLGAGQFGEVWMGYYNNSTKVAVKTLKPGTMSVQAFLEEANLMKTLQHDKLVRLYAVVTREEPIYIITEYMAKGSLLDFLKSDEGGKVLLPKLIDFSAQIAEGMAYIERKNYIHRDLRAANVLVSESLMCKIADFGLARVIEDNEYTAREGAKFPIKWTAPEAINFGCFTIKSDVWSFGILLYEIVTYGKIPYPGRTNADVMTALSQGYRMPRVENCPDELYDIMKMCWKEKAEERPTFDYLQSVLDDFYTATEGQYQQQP
# Assay: as above
# Conditions: compound 0.5 µM; ATP 10 µM
row,SMILES,residual activity
1,CCN1/C(=C/C(C)=O)Sc2ccc(OC)cc21,101% and 94.4%
2,COc1cc2ncnc(Nc3ccc(F)c(Cl)c3)c2cc1OCCCN1CCOCC1,57.1% and 67.8%
3,C#Cc1cccc(Nc2ncnc3cc(OCCOC)c(OCCOC)cc23)c1,72.5% and 75.4%
4,Clc1ccc(Nc2nnc(Cc3ccncc3)c3ccccc23)cc1,110% and 91.8%
5,CS(=O)c1ccc(-c2nc(-c3ccc(F)cc3)c(-c3ccncc3)[nH]2)cc1 (stereo not given),91.8% and 99.1%

# Biological target: JAK2 JH1 JH2 (human) (UniProt O60674)
# Sequence (O60674 whole entry, looked up): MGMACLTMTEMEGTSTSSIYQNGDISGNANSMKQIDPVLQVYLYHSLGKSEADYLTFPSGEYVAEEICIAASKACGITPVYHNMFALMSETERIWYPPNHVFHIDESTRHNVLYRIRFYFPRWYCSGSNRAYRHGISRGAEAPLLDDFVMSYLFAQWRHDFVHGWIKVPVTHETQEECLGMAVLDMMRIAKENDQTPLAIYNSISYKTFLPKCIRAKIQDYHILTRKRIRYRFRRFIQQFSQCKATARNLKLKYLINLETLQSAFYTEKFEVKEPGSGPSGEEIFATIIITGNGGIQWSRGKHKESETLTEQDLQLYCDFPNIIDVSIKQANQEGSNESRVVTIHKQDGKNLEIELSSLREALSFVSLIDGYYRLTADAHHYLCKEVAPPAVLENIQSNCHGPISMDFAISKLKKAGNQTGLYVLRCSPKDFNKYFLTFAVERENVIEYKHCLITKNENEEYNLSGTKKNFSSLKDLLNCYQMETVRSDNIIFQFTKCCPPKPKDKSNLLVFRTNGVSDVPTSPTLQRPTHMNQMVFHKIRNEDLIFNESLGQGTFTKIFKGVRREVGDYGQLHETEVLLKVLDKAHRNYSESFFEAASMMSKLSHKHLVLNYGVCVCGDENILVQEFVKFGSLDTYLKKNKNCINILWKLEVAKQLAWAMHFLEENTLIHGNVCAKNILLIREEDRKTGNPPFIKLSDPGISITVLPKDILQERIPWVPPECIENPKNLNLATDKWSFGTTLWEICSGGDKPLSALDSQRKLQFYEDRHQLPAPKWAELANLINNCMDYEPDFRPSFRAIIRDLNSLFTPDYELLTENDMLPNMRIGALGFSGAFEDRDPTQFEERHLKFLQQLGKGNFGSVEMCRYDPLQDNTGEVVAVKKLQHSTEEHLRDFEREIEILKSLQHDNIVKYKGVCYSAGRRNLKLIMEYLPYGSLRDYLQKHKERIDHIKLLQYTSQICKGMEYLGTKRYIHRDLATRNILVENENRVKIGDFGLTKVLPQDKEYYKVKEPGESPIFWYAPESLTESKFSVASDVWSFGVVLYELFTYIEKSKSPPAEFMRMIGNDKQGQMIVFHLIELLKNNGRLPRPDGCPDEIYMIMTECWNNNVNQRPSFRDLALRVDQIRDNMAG
# Assay: as above
# Conditions: compound 0.5 µM; ATP 10 µM
row,SMILES,residual activity [%]
1,CCN1/C(=C/C(C)=O)Sc2ccc(OC)cc21,97.1
2,COc1cc2ncnc(Nc3ccc(F)c(Cl)c3)c2cc1OCCCN1CCOCC1,99.8
3,Clc1ccc(Nc2nnc(Cc3ccncc3)c3ccccc23)cc1,106
4,CS(=O)c1ccc(-c2nc(-c3ccc(F)cc3)c(-c3ccncc3)[nH]2)cc1 (stereo not given),99.5

# Biological target: CAMK2D (human) (UniProt Q13557)
# Assay: as above
# Conditions: compound 0.5 µM; ATP 10 µM
row,SMILES,residual activity [%]
1,CCN1/C(=C/C(C)=O)Sc2ccc(OC)cc21,92.2
2,COc1cc2ncnc(Nc3ccc(F)c(Cl)c3)c2cc1OCCCN1CCOCC1,92.4
3,C#Cc1cccc(Nc2ncnc3cc(OCCOC)c(OCCOC)cc23)c1,95.1
4,Clc1ccc(Nc2nnc(Cc3ccncc3)c3ccccc23)cc1,81.1
5,CS(=O)c1ccc(-c2nc(-c3ccc(F)cc3)c(-c3ccncc3)[nH]2)cc1 (stereo not given),103

# Biological target: MAP3K5 (human) (UniProt Q99683)
# Sequence (Q99683 whole entry, looked up): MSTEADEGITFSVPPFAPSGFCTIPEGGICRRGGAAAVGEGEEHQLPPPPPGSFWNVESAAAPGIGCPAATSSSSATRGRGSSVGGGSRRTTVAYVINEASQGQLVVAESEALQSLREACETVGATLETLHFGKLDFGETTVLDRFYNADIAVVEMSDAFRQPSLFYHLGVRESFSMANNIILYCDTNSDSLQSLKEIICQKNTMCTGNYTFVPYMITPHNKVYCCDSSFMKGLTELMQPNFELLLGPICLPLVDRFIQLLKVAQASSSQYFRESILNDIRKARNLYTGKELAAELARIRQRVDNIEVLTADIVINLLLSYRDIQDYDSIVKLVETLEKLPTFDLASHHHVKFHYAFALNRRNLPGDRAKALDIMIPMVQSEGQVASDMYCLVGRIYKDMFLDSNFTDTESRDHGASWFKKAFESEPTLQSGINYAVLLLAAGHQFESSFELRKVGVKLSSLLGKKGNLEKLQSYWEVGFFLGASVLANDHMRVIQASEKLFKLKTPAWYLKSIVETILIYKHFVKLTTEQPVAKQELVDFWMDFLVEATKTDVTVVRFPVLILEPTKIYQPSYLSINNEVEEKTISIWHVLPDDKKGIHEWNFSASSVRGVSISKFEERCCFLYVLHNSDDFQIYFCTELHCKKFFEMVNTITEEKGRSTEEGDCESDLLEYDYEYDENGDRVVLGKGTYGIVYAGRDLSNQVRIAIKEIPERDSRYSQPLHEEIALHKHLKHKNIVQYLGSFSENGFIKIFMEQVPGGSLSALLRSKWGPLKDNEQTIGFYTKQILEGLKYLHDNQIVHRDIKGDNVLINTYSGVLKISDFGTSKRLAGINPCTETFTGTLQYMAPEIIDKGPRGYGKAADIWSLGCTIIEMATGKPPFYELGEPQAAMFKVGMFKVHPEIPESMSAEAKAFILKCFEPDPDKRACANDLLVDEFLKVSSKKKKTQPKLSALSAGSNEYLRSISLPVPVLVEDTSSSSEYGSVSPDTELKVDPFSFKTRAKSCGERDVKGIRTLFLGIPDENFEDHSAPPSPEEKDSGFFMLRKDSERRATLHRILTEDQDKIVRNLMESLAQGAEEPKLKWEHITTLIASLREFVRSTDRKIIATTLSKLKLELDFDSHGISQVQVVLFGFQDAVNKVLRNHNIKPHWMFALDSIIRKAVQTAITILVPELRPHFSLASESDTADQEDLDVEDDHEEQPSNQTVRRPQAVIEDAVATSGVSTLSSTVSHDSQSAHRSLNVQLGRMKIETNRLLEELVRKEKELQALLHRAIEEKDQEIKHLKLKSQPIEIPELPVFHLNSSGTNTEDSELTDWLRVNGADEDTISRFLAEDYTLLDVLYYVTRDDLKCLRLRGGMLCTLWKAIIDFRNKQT
# Assay: as above
# Conditions: compound 0.5 µM; ATP 10 µM
row,SMILES,residual activity [%]
1,CCN1/C(=C/C(C)=O)Sc2ccc(OC)cc21,118
2,COc1cc2ncnc(Nc3ccc(F)c(Cl)c3)c2cc1OCCCN1CCOCC1,103
3,C#Cc1cccc(Nc2ncnc3cc(OCCOC)c(OCCOC)cc23)c1,102
4,Clc1ccc(Nc2nnc(Cc3ccncc3)c3ccccc23)cc1,101
5,CS(=O)c1ccc(-c2nc(-c3ccc(F)cc3)c(-c3ccncc3)[nH]2)cc1 (stereo not given),107

# Biological target: CDK3 CCNE1 (human) (UniProt Q00526+P24864)
# Assay: as above
# Conditions: compound 0.5 µM; ATP 10 µM
row,SMILES,residual activity [%]
1,CCN1/C(=C/C(C)=O)Sc2ccc(OC)cc21,91.5
2,COc1cc2ncnc(Nc3ccc(F)c(Cl)c3)c2cc1OCCCN1CCOCC1,95
3,C#Cc1cccc(Nc2ncnc3cc(OCCOC)c(OCCOC)cc23)c1,95.6
4,Clc1ccc(Nc2nnc(Cc3ccncc3)c3ccccc23)cc1,92.7
5,CS(=O)c1ccc(-c2nc(-c3ccc(F)cc3)c(-c3ccncc3)[nH]2)cc1 (stereo not given),94.6

# Biological target: EPHB2 (human) (UniProt P29323)
# Assay: as above
# Conditions: compound 0.5 µM; ATP 10 µM
row,SMILES,residual activity [%]
1,CCN1/C(=C/C(C)=O)Sc2ccc(OC)cc21,98.3
2,COc1cc2ncnc(Nc3ccc(F)c(Cl)c3)c2cc1OCCCN1CCOCC1,87.7
3,C#Cc1cccc(Nc2ncnc3cc(OCCOC)c(OCCOC)cc23)c1,95.1
4,Clc1ccc(Nc2nnc(Cc3ccncc3)c3ccccc23)cc1,107
5,CS(=O)c1ccc(-c2nc(-c3ccc(F)cc3)c(-c3ccncc3)[nH]2)cc1 (stereo not given),108

# Biological target: CAMK2A (human) (UniProt Q9UQM7)
# Sequence (Q9UQM7 whole entry, looked up): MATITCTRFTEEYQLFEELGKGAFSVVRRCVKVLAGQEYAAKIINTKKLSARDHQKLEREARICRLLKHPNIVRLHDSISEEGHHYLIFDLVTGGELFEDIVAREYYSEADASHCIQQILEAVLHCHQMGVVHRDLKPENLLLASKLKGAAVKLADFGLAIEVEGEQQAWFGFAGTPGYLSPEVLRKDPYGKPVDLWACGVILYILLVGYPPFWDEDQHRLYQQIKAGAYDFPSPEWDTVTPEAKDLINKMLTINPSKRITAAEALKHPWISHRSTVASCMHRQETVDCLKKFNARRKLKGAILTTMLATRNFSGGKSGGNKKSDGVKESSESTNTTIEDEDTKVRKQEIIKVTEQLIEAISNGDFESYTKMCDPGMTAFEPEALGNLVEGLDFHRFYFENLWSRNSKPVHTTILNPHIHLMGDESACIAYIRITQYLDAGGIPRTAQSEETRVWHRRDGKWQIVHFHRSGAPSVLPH
# Assay: as above
# Conditions: compound 0.5 µM; ATP 10 µM
row,SMILES,residual activity [%]
1,CCN1/C(=C/C(C)=O)Sc2ccc(OC)cc21,103
2,COc1cc2ncnc(Nc3ccc(F)c(Cl)c3)c2cc1OCCCN1CCOCC1,94.4
3,C#Cc1cccc(Nc2ncnc3cc(OCCOC)c(OCCOC)cc23)c1,97.6
4,Clc1ccc(Nc2nnc(Cc3ccncc3)c3ccccc23)cc1,93.2
5,CS(=O)c1ccc(-c2nc(-c3ccc(F)cc3)c(-c3ccncc3)[nH]2)cc1 (stereo not given),101

# Biological target: KIT (human) (UniProt P10721)
# Assay: as above
# Conditions: compound 0.5 µM; ATP 10 µM
row,SMILES,residual activity [%]
1,CCN1/C(=C/C(C)=O)Sc2ccc(OC)cc21,67.8
2,CS(=O)c1ccc(-c2nc(-c3ccc(F)cc3)c(-c3ccncc3)[nH]2)cc1 (stereo not given),91.3

# Biological target: CAMK2B (human) (UniProt Q13554)
# Assay: as above
# Conditions: compound 0.5 µM; ATP 10 µM
row,SMILES,residual activity [%]
1,CCN1/C(=C/C(C)=O)Sc2ccc(OC)cc21,102
2,COc1cc2ncnc(Nc3ccc(F)c(Cl)c3)c2cc1OCCCN1CCOCC1,95.4
3,C#Cc1cccc(Nc2ncnc3cc(OCCOC)c(OCCOC)cc23)c1,93.1
4,Clc1ccc(Nc2nnc(Cc3ccncc3)c3ccccc23)cc1,109
5,CS(=O)c1ccc(-c2nc(-c3ccc(F)cc3)c(-c3ccncc3)[nH]2)cc1 (stereo not given),97.6

# Biological target: PBK (human) (UniProt Q96KB5)
# Sequence (Q96KB5 whole entry, looked up): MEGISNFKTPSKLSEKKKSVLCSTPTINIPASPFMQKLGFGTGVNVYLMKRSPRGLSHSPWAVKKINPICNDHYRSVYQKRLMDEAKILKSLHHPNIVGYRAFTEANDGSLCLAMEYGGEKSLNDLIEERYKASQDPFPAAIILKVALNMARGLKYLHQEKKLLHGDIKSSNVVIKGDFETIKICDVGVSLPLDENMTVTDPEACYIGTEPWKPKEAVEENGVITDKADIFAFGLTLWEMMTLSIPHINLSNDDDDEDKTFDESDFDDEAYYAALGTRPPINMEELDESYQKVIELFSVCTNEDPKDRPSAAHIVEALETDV
# Assay: as above
# Conditions: compound 0.5 µM; ATP 10 µM
row,SMILES,residual activity [%]
1,CCN1/C(=C/C(C)=O)Sc2ccc(OC)cc21,94.8
2,COc1cc2ncnc(Nc3ccc(F)c(Cl)c3)c2cc1OCCCN1CCOCC1,102
3,C#Cc1cccc(Nc2ncnc3cc(OCCOC)c(OCCOC)cc23)c1,104
4,Clc1ccc(Nc2nnc(Cc3ccncc3)c3ccccc23)cc1,108
5,CS(=O)c1ccc(-c2nc(-c3ccc(F)cc3)c(-c3ccncc3)[nH]2)cc1 (stereo not given),102

# Biological target: MAP3K10 (human) (UniProt Q02779)
# Assay: as above
# Conditions: compound 0.5 µM; ATP 10 µM
row,SMILES,residual activity [%]
1,CCN1/C(=C/C(C)=O)Sc2ccc(OC)cc21,95
2,COc1cc2ncnc(Nc3ccc(F)c(Cl)c3)c2cc1OCCCN1CCOCC1,109
3,C#Cc1cccc(Nc2ncnc3cc(OCCOC)c(OCCOC)cc23)c1,108
4,Clc1ccc(Nc2nnc(Cc3ccncc3)c3ccccc23)cc1,110
5,CS(=O)c1ccc(-c2nc(-c3ccc(F)cc3)c(-c3ccncc3)[nH]2)cc1 (stereo not given),104

# Biological target: RPS6KA1 KD1 KD2 (human) (UniProt Q15418)
# Sequence (Q15418 whole entry, looked up): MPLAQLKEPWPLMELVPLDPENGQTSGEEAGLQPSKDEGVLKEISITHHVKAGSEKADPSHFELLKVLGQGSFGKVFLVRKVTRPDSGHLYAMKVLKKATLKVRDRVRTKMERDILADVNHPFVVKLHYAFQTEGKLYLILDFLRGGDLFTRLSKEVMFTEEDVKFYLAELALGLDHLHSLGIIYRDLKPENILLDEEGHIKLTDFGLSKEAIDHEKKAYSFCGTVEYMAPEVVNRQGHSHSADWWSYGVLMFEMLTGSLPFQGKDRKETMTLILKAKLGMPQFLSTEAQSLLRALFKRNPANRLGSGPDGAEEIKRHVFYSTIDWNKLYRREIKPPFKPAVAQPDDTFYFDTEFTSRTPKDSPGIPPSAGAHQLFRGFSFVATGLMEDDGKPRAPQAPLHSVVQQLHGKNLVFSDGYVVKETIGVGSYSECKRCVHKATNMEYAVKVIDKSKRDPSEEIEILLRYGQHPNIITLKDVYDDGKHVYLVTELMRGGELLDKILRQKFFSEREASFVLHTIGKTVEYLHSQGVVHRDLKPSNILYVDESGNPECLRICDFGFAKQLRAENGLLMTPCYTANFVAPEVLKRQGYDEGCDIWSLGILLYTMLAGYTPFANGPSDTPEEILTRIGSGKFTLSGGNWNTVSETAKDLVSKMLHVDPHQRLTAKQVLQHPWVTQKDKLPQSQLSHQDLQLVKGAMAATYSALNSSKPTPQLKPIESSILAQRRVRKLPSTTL
# Assay: as above
# Conditions: compound 0.5 µM; ATP 10 µM
row,SMILES,residual activity [%]
1,CCN1/C(=C/C(C)=O)Sc2ccc(OC)cc21,94
2,COc1cc2ncnc(Nc3ccc(F)c(Cl)c3)c2cc1OCCCN1CCOCC1,97.3
3,C#Cc1cccc(Nc2ncnc3cc(OCCOC)c(OCCOC)cc23)c1,97.6
4,Clc1ccc(Nc2nnc(Cc3ccncc3)c3ccccc23)cc1,113
5,CS(=O)c1ccc(-c2nc(-c3ccc(F)cc3)c(-c3ccncc3)[nH]2)cc1 (stereo not given),99.9

# Biological target: BTK (human) (UniProt Q06187)
# Assay: as above
# Conditions: compound 0.5 µM; ATP 10 µM
row,SMILES,residual activity [%]
1,CCN1/C(=C/C(C)=O)Sc2ccc(OC)cc21,101
2,COc1cc2ncnc(Nc3ccc(F)c(Cl)c3)c2cc1OCCCN1CCOCC1,60.6
3,Clc1ccc(Nc2nnc(Cc3ccncc3)c3ccccc23)cc1,95.4
4,CS(=O)c1ccc(-c2nc(-c3ccc(F)cc3)c(-c3ccncc3)[nH]2)cc1 (stereo not given),97.2
